This is an account of results in PMC2930046 (Archives of biochemistry and biophysics, 2010).

One series concerns Mtb proteasome. The settings on record: cited from earlier work.
For another series, the target named is mammalian proteasome. The settings on record: cited from earlier work.
Series [1] deals with T1, Mtb20SOG (Mycobacterium tuberculosis, UniProt P9WHT9). The experiment in a line: Kinetics of inhibition of Mtb20SOG, progress curves of Suc-LLVY-AMC cleavage. The format is biochemical.
T1 sequence (P9WHT9 58-291): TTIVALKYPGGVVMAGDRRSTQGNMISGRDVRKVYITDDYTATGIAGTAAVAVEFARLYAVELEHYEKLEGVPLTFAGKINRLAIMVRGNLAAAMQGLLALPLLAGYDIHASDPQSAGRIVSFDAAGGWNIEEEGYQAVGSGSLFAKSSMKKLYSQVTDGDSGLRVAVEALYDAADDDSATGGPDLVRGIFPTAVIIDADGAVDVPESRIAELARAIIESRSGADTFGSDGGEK
Another series relates to cancer cells. The settings on record: cited from earlier work.
In another series the test system is proteasome β5. The settings on record: read-out: IC50 for β5; cited from earlier work.
Another series has as its target human 20S β5 (Homo sapiens, UniProt P28074). The format is biochemical.
For series [2], the system named is fibroblasts and glial-derived cells. The settings on record: through inhibition of proteasome activity; cited from earlier work.
The target in series [3] is T1, Mtb20SOG. The format is biochemical. The settings on record: retest of screening hits.

“And” between values parts separate entries of the source, which are not always exact repeats. Identical values can stand only once. Peptide text beside a SMILES is read from it. * marks the point of attachment. AMC = Cc1cc(=O)oc2cc(N*)ccc12; Cbz = O=C(OCc1ccccc1)*

Regarding `CC(=O)NC(CC(N)=O)C(=O)NC(CCC(N)=O)C(=O)NC(CC(C)C)C(=O)Nc1ccc2c(C)cc(=O)oc2c1` (stereo not drawn) [Ac-NQL-AMC] (Ac-Asn-Gln-Leu-{AMC}; configuration not given here), in the series with Mtb proteasome, the “hydrolysis by the Mtb proteasome” value is given as “could not be hydrolyzed”.
As for `CC(C)C[C@@H](C=O)NC(=O)[C@H](CC(C)C)NC(=O)[C@H](CC(C)C)NC(=O)OCc1ccccc1` [Z-Leu-Leu-Leu-Cho] (Cbz-Leu-Leu-Leu-aldehyde), the Ki on mammalian proteasome was 4 nM.
In the case of `CCCCCCCCC[C@@H](O)CC(=O)N[C@@H](CC(N)=O)C(=O)N[C@@H](CCC(N)=O)C(=O)N[C@H](C=O)CC(C)C` [compound 1, (R)-3-hydroxydodecanoyl-Asn-Gln-Leu-CHO], the Ki on Mtb20SOG [1] (Ki calculated from koff/kon, koff/kon) was 7.4 nM; on Mtb20SOG [1] (Ki, Morrison fit of vs/vo vs [1], corrected by (1+[S]/KM), one-step slow binding), 6.8 nM; at Mtb20SOG [1] (Kiapp, apparent, Morrison equation 3, uncorrected), 11.1 nM; at human 20S β5 (Ki, initial EI complex, corrected by equation 4, two-step mechanism), 11.6 nM and 11.5 nM. For the same molecule, the koff on Mtb20SOG [1] (read-out: k4 (koff)) worked out at 0.00096 s⁻¹. Moreover, the kon on Mtb20SOG [1] (read-out: kon^app (slope of the fit, apparent)) came to 79500 M⁻¹ s⁻¹. Further, in the series on cancer cells, the “cytotoxicity to cancer cells” value is reported as “cytotoxic to cancer cells”. For the same molecule, the IC50 with proteasome β5 was 9.6 nM. Besides, the “advantage on binding affinity of EI* over EI (ΔG = −RTlnK)” value on human 20S β5 came to 1.5 kcal/mol. Further, the k5/k6 ratio at human 20S β5 is on record as 11. Besides, the “distribution of enzyme into EI*” value on human 20S β5 (from k5/k6 ratio) is given as 91%. In series [2], the “release of nerve growth factor” value is “induce the release of nerve growth factor”. Besides, on Mtb20SOG [3], the “inhibition of Mtb20SOG on retest with re-supplied compound” value is on record as “dose-dependent inhibition”.
